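Five compound concentrations were applied to cells in 96-well plates for 48 hours; endpoints were derived by simple linear interpolation of the resulting dose-response curve. TGI is the concentration that stops growth completely.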

This passage reports TGI results from PubChem BioAssay (NCI).

Among the test systems are A549 NSCLC; BT-549 breast; CCRF-CEM leukemia; COLO 205 colon; EKVX NSCLC; HS 578T breast; K-562 leukemia; MALME-3M melanoma; OVCAR-8 ovarian; PC-3 prostate; U251 CNS.
What all share (assay): NCI anticancer screen, dose series, 48 h

Turning to `Cc1ccc(/C=C/C(=O)c2c([O-])on[n+]2-c2ccccc2)cc1`, the TGI is 25 µM in the assay with A549 NSCLC; 6.09 µM in the assay on BT-549 breast; more than 100 µM in the assay with CCRF-CEM leukemia; 7.35 µM in the assay with COLO 205 colon; 14.6 µM in the assay on EKVX NSCLC; more than 25.8 µM in the assay on HS 578T breast. For the same compound, the TGI is more than 100 µM in the assay on K-562 leukemia; 98.3 µM in the assay on MALME-3M melanoma; 4.05 µM with OVCAR-8 ovarian; 17.2 µM in the assay with PC-3 prostate; 10.7 µM in the assay on U251 CNS.

Take `O=C1CCCc2c1c1c(n2Cc2ccccc2)-c2ccccc2C1=O`: the TGI in the assay with A549 NSCLC is 88.2 µM; in the assay with BT-549 breast it was 55.7 µM; in the assay on CCRF-CEM leukemia it was more than 100 µM; in the assay with COLO 205 colon, 42.8 µM; with EKVX NSCLC it was 91.3 µM; in the assay on HS 578T breast, 77.3 µM. Besides, the TGI with K-562 leukemia was determined as 46.6 µM; in the assay with MALME-3M melanoma, 38.1 µM; in the assay with OVCAR-8 ovarian, 34 µM; with PC-3 prostate, 96.6 µM; in the assay with U251 CNS, 43.9 µM.

`N#Cc1[nH]c(=O)n(-c2ccc(Cl)cc2)c1N`: the TGI in the assay with A549 NSCLC, with BT-549 breast, in the assay with CCRF-CEM leukemia, in the assay with COLO 205 colon, in the assay with EKVX NSCLC and with HS 578T breast was more than 10 µM each time. Besides, the TGI in the assay with K-562 leukemia, in the assay with MALME-3M melanoma, in the assay with OVCAR-8 ovarian, with PC-3 prostate and in the assay with U251 CNS was more than 10 µM each time.

As for `CC(C)CCC1(O)O[C@H]2C[C@H]3[C@@H]4CCC5CC(=O)C=C[C@]5(C)[C@H]4CC[C@]3(C)[C@H]2[C@@H]1C` (some centres not stated), the TGI amounted to 28.2 µM in the assay with A549 NSCLC; 27.3 µM with BT-549 breast; 10.3 µM with CCRF-CEM leukemia; 27.8 µM in the assay on COLO 205 colon; 34.7 µM in the assay on EKVX NSCLC; 7.31 µM in the assay with HS 578T breast. Further, the TGI in the assay with K-562 leukemia came out at 19.3 µM; in the assay on MALME-3M melanoma, 29.5 µM; in the assay on OVCAR-8 ovarian, 30.5 µM; with PC-3 prostate, 17.4 µM; in the assay with U251 CNS, 23.7 µM.

On to `Nc1nc(Cl)cc(NCC2(CO)CCC(Cc3ccccc3)C2)n1` (configuration not stated), for which the TGI was more than 100 µM with A549 NSCLC; 78.7 µM in the assay with BT-549 breast; 75.4 µM in the assay with CCRF-CEM leukemia; 28.6 µM in the assay with COLO 205 colon; more than 100 µM with EKVX NSCLC; more than 79.9 µM with HS 578T breast. Further, the TGI is 64.8 µM in the assay on K-562 leukemia; more than 71.9 µM in the assay on MALME-3M melanoma; more than 100 µM with OVCAR-8 ovarian; more than 96.1 µM in the assay with PC-3 prostate; more than 100 µM with U251 CNS.

Regarding `CN1CCC2(CC1)C(=O)N(N1CCCCCC1)C(=O)N2c1ccccc1`, the TGI in the assay on A549 NSCLC, in the assay with BT-549 breast, in the assay on CCRF-CEM leukemia, with COLO 205 colon, with EKVX NSCLC and in the assay with HS 578T breast was more than 100 µM each time. For the same compound, the TGI with K-562 leukemia, with MALME-3M melanoma, in the assay on OVCAR-8 ovarian, in the assay with PC-3 prostate and with U251 CNS was more than 100 µM each time.

Consider `O=C(CSc1nc(=O)[nH]c2nc[nH]c12)Nc1ccccc1`, for which the TGI in the assay with A549 NSCLC, in the assay with BT-549 breast, in the assay on CCRF-CEM leukemia, with COLO 205 colon, in the assay with EKVX NSCLC and in the assay on HS 578T breast was more than 100 µM throughout. For the same compound, the TGI in the assay with K-562 leukemia, in the assay with MALME-3M melanoma, in the assay with OVCAR-8 ovarian, with PC-3 prostate and in the assay with U251 CNS was more than 100 µM throughout.

Regarding `CCOc1ccc2c(c1)/C(=C(\C(Cl)=C(Cl)Cl)[N+](=O)[O-])N2`, the TGI in the assay on A549 NSCLC, in the assay on BT-549 breast, with CCRF-CEM leukemia, with COLO 205 colon, in the assay with EKVX NSCLC and in the assay with HS 578T breast was more than 100 µM each time. Also, the TGI in the assay on K-562 leukemia, in the assay on MALME-3M melanoma, in the assay with OVCAR-8 ovarian, with PC-3 prostate and in the assay on U251 CNS was more than 100 µM each time.

Consider `CC1(c2ccc(Cl)cc2)CC(c2ccc(Cl)cc2)=C(C#N)C(=C(C#N)C#N)N1` (configuration not stated), for which the TGI was 53.3 µM in the assay on A549 NSCLC; 42.2 µM in the assay with BT-549 breast; more than 100 µM in the assay with CCRF-CEM leukemia; 28.7 µM in the assay on COLO 205 colon; 35.6 µM in the assay with EKVX NSCLC; 50.3 µM in the assay with HS 578T breast. In addition, the TGI turned out to be 66.2 µM with K-562 leukemia; 32.3 µM in the assay on MALME-3M melanoma; 34 µM with OVCAR-8 ovarian; 31.9 µM with PC-3 prostate; 29.5 µM with U251 CNS.

For the compound `O=C1NC2(CCCCC2)N=C2C(Cl)CCCC12Cl` (configuration not stated), the TGI in the assay with A549 NSCLC, in the assay on BT-549 breast, in the assay with CCRF-CEM leukemia, in the assay on COLO 205 colon, in the assay on EKVX NSCLC and in the assay on HS 578T breast was more than 100 µM throughout. For the same compound, the TGI with K-562 leukemia, in the assay with MALME-3M melanoma, in the assay with OVCAR-8 ovarian, in the assay on PC-3 prostate and in the assay on U251 CNS was more than 100 µM each time.

With `O=C1C2C=CC1C1C(=O)OC(=O)C21` (configuration not stated), the TGI in the assay on A549 NSCLC, with BT-549 breast, with CCRF-CEM leukemia, in the assay on COLO 205 colon, in the assay on EKVX NSCLC and in the assay with HS 578T breast was more than 100 µM in each case. The TGI with K-562 leukemia, in the assay on MALME-3M melanoma, in the assay with OVCAR-8 ovarian, with PC-3 prostate and in the assay with U251 CNS was more than 100 µM each time.

With `O=C1OC(c2ccc(O)c(Cl)c2)(c2ccc(O)c(Cl)c2)c2ccc(Br)c3cccc1c23` (tested in a mixture with another compound), the TGI with A549 NSCLC is 38.9 µM; with BT-549 breast, 18.6 µM; in the assay on CCRF-CEM leukemia, 42.3 µM; in the assay on COLO 205 colon, 23.1 µM; in the assay with EKVX NSCLC it was 29.3 µM; in the assay on HS 578T breast, more than 53.1 µM. Besides, the TGI was found to be 46.2 µM in the assay with K-562 leukemia; 39.3 µM with MALME-3M melanoma; 51.9 µM in the assay on OVCAR-8 ovarian; 28.8 µM in the assay with PC-3 prostate; 38.2 µM with U251 CNS.
